Measured values as given in patent US5852007A, “Cysteine and serine protease inhibitors containing D-amino acid at the P2 position, methods of making same, and methods of using same” (priority 1997, dated 1998).
Like-named read-outs stand apart in the source and are kept apart here. Square brackets hold non-standard residues; d marks the D form. Peptide text beside a SMILES is read from it. * marks the point of attachment. 2Thi = N[C@@H](Cc1cccs1)C(=O)O; Tos = Cc1ccc(S(=O)(=O)*)cc1; Bn = c1ccc(C*)cc1; Ms = CS(=O)(=O)*

Columns and labels:
Type in all cases: biochemical
cathepsin B = target: T1, cathepsin B (Homo sapiens, UniProt P07858); assay: Inhibition of cathepsin B; conditions: for inhibition at 1 µM: read-out: Cat B % I @ 1 uM
T1 construct: purchased Calbiochem 219364
Experimental: (§1) Additionally,the order of reagents added to the plate was altered because both enzymes are constitutively active. Following inhibitor addition to the plates, appropriate 2× concentrated stock dilutions of the enzyme preparations were made in assay buffer and 100 μl added to each well. The assay was initiated by addition of 100 μl of 2× concentrated stock dilution of substrate in assay buffer.

cathepsin L = target: T2, cathepsin L (Homo sapiens, UniProt P07711); assay: Inhibition of cathepsin L; conditions: for inhibition at 1 µM: read-out: Cat L % I @ 1 uM
T2 construct: purchased Calbiochem 219402
T2 sequence (P07711 114-288 limits assumed): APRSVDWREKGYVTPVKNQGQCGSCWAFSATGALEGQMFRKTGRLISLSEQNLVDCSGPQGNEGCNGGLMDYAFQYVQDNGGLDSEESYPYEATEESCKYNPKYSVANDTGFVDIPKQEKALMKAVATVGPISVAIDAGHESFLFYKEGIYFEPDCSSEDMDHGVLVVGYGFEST
T2 sequence (P07711 292-333 limits assumed): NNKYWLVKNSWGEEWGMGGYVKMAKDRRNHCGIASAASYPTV
Experimental: as §1

thrombin = target: T3, thrombin (Homo sapiens, UniProt P00734); assay: Inhibition of thrombin; conditions: 10 uM; for inhibition at 10 µM: read-out: Thrombin % I @ 10 uM
T3 construct: purchased Sigma Chem. Co. T-7009

α-chymotrypsin = target: T4, α-chymotrypsin (Bos taurus, UniProt P00766); assay: Inhibition of α-chymotrypsin; conditions: 10 uM; for inhibition at 10 µM: read-out: Chymotrypsin % I @ 10 uM
T4 construct: purchased Sigma Chem. Co. C-3142
Experimental: Additionally, because α-chymotrypsin is not a calcium sensitive enzyme and is constitutively active, following addition of inhibitor stocks to the 96 well plates, 100 μl of a 2-fold concentrated stock of enzyme in dilution buffer was first added and the reaction started by addition of 100 μl of a 2-fold concentrated stock of substrate in assay buffer. Substrate hydrolysis was monitored every 5 minutes up to 30 minutes using a Fluoroskan II ([…]).

[1] = target: T5, Recombinant human calpain I (Homo sapiens, UniProt P07384); assay: Inhibition of calpain I activity
T5 construct: made in house
T5 sequence (P07384 1-714): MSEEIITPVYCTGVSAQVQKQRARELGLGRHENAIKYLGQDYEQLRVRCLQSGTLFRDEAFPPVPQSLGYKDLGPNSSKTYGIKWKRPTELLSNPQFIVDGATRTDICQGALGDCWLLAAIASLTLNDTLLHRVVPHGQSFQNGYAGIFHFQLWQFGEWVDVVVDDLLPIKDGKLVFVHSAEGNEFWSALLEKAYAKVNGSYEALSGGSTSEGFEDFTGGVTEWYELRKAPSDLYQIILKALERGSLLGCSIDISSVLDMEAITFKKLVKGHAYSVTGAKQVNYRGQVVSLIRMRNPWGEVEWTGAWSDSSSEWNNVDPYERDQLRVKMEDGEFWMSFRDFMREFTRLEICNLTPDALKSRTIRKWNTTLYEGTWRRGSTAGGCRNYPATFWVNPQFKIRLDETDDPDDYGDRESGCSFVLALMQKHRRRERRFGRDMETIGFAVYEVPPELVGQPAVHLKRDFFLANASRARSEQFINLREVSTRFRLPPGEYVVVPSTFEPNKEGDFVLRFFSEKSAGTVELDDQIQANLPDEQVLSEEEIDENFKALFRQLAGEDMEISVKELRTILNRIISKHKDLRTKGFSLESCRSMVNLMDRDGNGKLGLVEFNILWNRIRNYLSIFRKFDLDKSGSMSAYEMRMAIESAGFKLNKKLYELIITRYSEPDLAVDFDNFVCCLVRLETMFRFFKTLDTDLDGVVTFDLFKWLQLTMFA
Experimental: To evaluate inhibitory activity, stock solutions (40 times concentrated) of exemplary compounds of the invention were prepared in 100% anhydrous DMSO and 5 μL of each inhibitor preparation were aliquoted into each of three wells of a 96-well plate. Recombinant human calpain I, prepared by the method of Meyer et al. (Biochem. […] To start the reaction, 20 μL of 50 mM CaCl2 in assay buffer was added to all wells of the plate, excepting three, which were used as background signal baseline controls. Substrate hydrolysis was monitored every 5 minutes for a total of 30 minutes. […] Inhibition of calpain I activity was calculated as the percent decrease in the rate of substrate hydrolysis in the presence of inhibitor (VI) relative to the rate in its absence (VO). Comparison between VO and VI was made within the linear range for substrate hydrolysis. For screening, compounds were tested at 10, 1.0, and 0.1 μM. […] The results were plotted as % inhibition versus log inhibitor concentration and the IC50 was calculated from linear regression of the data. Apparent second order rate constants were determined from analysis of reaction progress curves under pseudo-first order conditions. Each determination represents the means of three or more independent single cuvette analyses continually monitored via a Perkin-Elmer LS50B spectrofluorimeter. The rate of inhibition of hydrolysis was obtained by fitting the curve to the exponential equation (1): […]

## CC(=O)N[C@H](CSCc1ccccc1)C(=O)N[C@H](C=O)Cc1ccccc1 [Compound 25, BnS--CH2 CH(NHC(=O)CH3)C(=O)-Phe--H] (Ac-[dC](Bn)-Phe-aldehyde)
Cathepsin B; Table II, read-out: Cat B IC50
  IC50: 5000 nM
Cathepsin L; Table II, read-out: Cat L IC50
  IC50: 48 nM
thrombin; Table II
  inhibition at 10 µM: 0%
α-chymotrypsin; Table II
  inhibition at 10 µM: 3%
[1]; Table II
  IC50: 26 nM

## O=C[C@H](Cc1ccccc1)NC(=O)[C@@H](Cc1c[nH]c2ccccc12)NS(=O)(=O)c1ccccc1 [Compound 71]
Cathepsin B; Table III, 1 uM
  inhibition at 1 µM: 100%
Cathepsin L; Table III, 1 uM
  inhibition at 1 µM: 100%
thrombin; Table III
  inhibition at 10 µM: 11%
α-chymotrypsin; Table III
  inhibition at 10 µM: 5%
[1]; Table III
  IC50: 31 nM
[1]; Table III, 0.1 uM
  inhibition at 0.1 µM: 92%

## CC(=O)N[C@H](COCc1ccccc1)C(=O)N[C@H](C=O)Cc1ccccc1 [Compound 42]
Cathepsin B; Table III, 1 uM
  inhibition at 1 µM: 90%
Cathepsin L; Table III, 1 uM
  inhibition at 1 µM: 96%
thrombin; Table III
  inhibition at 10 µM: 7%
α-chymotrypsin; Table III
  inhibition at 10 µM: 14%
[1]; Table III
  IC50: 17 nM
[1]; Table III, 0.1 uM
  inhibition at 0.1 µM: 87%

## CCOC(OCC)[C@H](Cc1ccccc1)NC(=O)[C@@H](COCc1ccccc1)NS(C)(=O)=O [Compound 134]
Cathepsin B; Table III, 1 uM
  inhibition at 1 µM: 19%
Cathepsin L; Table III, 1 uM
  inhibition at 1 µM: 98%
thrombin; Table III
  inhibition at 10 µM: 0%
α-chymotrypsin; Table III
  inhibition at 10 µM: 10%
[1]; Table III, 0.1 uM
  inhibition at 0.1 µM: 0%

## CC(C)(C)OC(=O)N1CCCC[C@H](NC(=O)[C@@H](COCc2ccccc2)N(C(=O)OC(C)(C)C)S(C)(=O)=O)C1=O [Compound 127]
Cathepsin B; Table III, 1 uM
  inhibition at 1 µM: 36%
Cathepsin L; Table III, 1 uM
  inhibition at 1 µM: 7%
thrombin; Table III
  inhibition at 10 µM: 0%
α-chymotrypsin; Table III
  inhibition at 10 µM: 1%
[1]; Table III, 0.1 uM
  inhibition at 0.1 µM: 6%

## Cc1ccc(S(=O)(=O)O[C@H]2C[C@H](C(=O)N[C@H](C=O)Cc3ccccc3)N(S(=O)(=O)c3ccccc3)C2)cc1 [Compound 113]
Cathepsin B; Table III, 1 uM
  inhibition at 1 µM: 47%
Cathepsin L; Table III, 1 uM
  inhibition at 1 µM: 94%
thrombin; Table III
  inhibition at 10 µM: 0%
α-chymotrypsin; Table III
  inhibition at 10 µM: 0%
[1]; Table III, 0.1 uM
  inhibition at 0.1 µM: 11%

## Cc1ccc(S(=O)(=O)N2C[C@@H](N=[N+]=[N-])C[C@@H]2C(=O)N[C@H](C=O)Cc2ccccc2)cc1 [Compound 114]
Cathepsin B; Table III, 1 uM
  inhibition at 1 µM: 24%
Cathepsin L; Table III, 1 uM
  inhibition at 1 µM: 100%
thrombin; Table III
  inhibition at 10 µM: 3%
α-chymotrypsin; Table III
  inhibition at 10 µM: 9%
[1]; Table III, 0.1 uM
  inhibition at 0.1 µM: 85%

## Cc1ccc(S(=O)(=O)N[C@H](Cc2ccccc2)C(=O)N[C@H](C=O)Cc2ccccc2)cc1 [Compound 61] (Tos-[dF]-Phe-aldehyde)
Cathepsin B; Table III, 1 uM
  inhibition at 1 µM: 100%
Cathepsin L; Table III, 1 uM
  inhibition at 1 µM: 100%
thrombin; Table III
  inhibition at 10 µM: 0%
α-chymotrypsin; Table III
  inhibition at 10 µM: 0%
[1]; Table III
  IC50: 22 nM
[1]; Table III, 0.1 uM
  inhibition at 0.1 µM: 83%

## CON=C[C@H](Cc1ccccc1)NC(=O)[C@@H](COCc1ccccc1)NS(C)(=O)=O [Compound 119]
Cathepsin B; Table III, 1 uM
  inhibition at 1 µM: 68%
Cathepsin L; Table III, 1 uM
  inhibition at 1 µM: 98%
thrombin; Table III
  inhibition at 10 µM: 0%
α-chymotrypsin; Table III
  inhibition at 10 µM: 3%
[1]; Table III, 0.1 uM
  inhibition at 0.1 µM: 19%

## Cc1noc(C)c1S(=O)(=O)N[C@H](COCc1ccccc1)C(=O)N[C@H](C=O)Cc1ccccc1 [Compound 55]
Cathepsin B; Table III, 1 uM
  inhibition at 1 µM: 90%
Cathepsin L; Table III, 1 uM
  inhibition at 1 µM: 100%
thrombin; Table III
  inhibition at 10 µM: 2%
α-chymotrypsin; Table III
  inhibition at 10 µM: 12%
[1]; Table III
  IC50: 25 nM
[1]; Table III, 0.1 uM
  inhibition at 0.1 µM: 87%

## CS(=O)(=O)N[C@H](CSCc1ccccc1)C(=O)N[C@H](C=O)Cc1ccccc1 [Compound 106] (Ms-[dC](Bn)-Phe-aldehyde)
Cathepsin B; Table III, 1 uM
  inhibition at 1 µM: 92%
Cathepsin L; Table III, 1 uM
  inhibition at 1 µM: 100%
thrombin; Table III
  inhibition at 10 µM: 7%
α-chymotrypsin; Table III
  inhibition at 10 µM: 16%
[1]; Table III
  IC50: 8 nM
[1]; Table III, 0.1 uM
  inhibition at 0.1 µM: 95%

## CS(=O)(=O)N[C@@H](Cc1cccs1)C(=O)N[C@H](C=O)Cc1ccccc1 [Compound 99] (Ms-[2Thi]-Phe-aldehyde)
Cathepsin B; Table III, 1 uM
  inhibition at 1 µM: 96%
Cathepsin L; Table III, 1 uM
  inhibition at 1 µM: 100%
thrombin; Table III
  inhibition at 10 µM: 0%
α-chymotrypsin; Table III
  inhibition at 10 µM: 13%
[1]; Table III
  IC50: 62 nM
[1]; Table III, 0.1 uM
  inhibition at 0.1 µM: 66%

## O=C[C@H](Cc1ccccc1)NC(=O)[C@@H](COCc1ccccc1)NC(=O)C(c1ccccc1)c1ccccc1 [Compound 45]
Cathepsin B; Table III, 1 uM
  inhibition at 1 µM: 100%
Cathepsin L; Table III, 1 uM
  inhibition at 1 µM: 100%
thrombin; Table III
  inhibition at 10 µM: 7%
α-chymotrypsin; Table III
  inhibition at 10 µM: 5%
[1]; Table III
  IC50: 85 nM
[1]; Table III, 0.1 uM
  inhibition at 0.1 µM: 55%

## O=C[C@H](Cc1ccccc1)NC(=O)[C@@H](COCc1ccccc1)NS(=O)(=O)c1cccs1 [Compound 54]
Cathepsin B; Table III, 1 uM
  inhibition at 1 µM: 100%
Cathepsin L; Table III, 1 uM
  inhibition at 1 µM: 100%
thrombin; Table III
  inhibition at 10 µM: 4%
α-chymotrypsin; Table III
  inhibition at 10 µM: 3%
[1]; Table III
  IC50: 13 nM
[1]; Table III, 0.1 uM
  inhibition at 0.1 µM: 95%

## CN([C@H](COCc1ccccc1)C(=O)N[C@H](C=O)Cc1ccccc1)S(C)(=O)=O [Compound 83]
Cathepsin B; Table III, 1 uM
  inhibition at 1 µM: 62%
Cathepsin L; Table III, 1 uM
  inhibition at 1 µM: 53%
thrombin; Table III
  inhibition at 10 µM: 7%
α-chymotrypsin; Table III
  inhibition at 10 µM: 0%
[1]; Table III
  IC50: 520 nM
[1]; Table III, 0.1 uM
  inhibition at 0.1 µM: 37%

## CS(=O)(=O)N[C@H](COCc1ccccc1)C(=O)N[C@@H](Cc1ccccc1)C1OCCS1 (some centres unmarked) [Compound 131]
Cathepsin B; Table III, 1 uM
  inhibition at 1 µM: 21%
Cathepsin L; Table III, 1 uM
  inhibition at 1 µM: 55%
thrombin; Table III
  inhibition at 10 µM: 11%
α-chymotrypsin; Table III
  inhibition at 10 µM: 0%
[1]; Table III, 0.1 uM
  inhibition at 0.1 µM: 6%

## O=C[C@H](Cc1ccccc1)NC(=O)[C@@H](Cc1ccccc1)NS(=O)(=O)c1ccc2ccccc2c1 [Compound 72]
Cathepsin B; Table III, 1 uM
  inhibition at 1 µM: 100%
Cathepsin L; Table III, 1 uM
  inhibition at 1 µM: 100%
thrombin; Table III
  inhibition at 10 µM: 13%
α-chymotrypsin; Table III
  inhibition at 10 µM: 7%
[1]; Table III
  IC50: 14 nM
[1]; Table III, 0.1 uM
  inhibition at 0.1 µM: 91%

## CS(=O)(=O)N1Cc2ccccc2CC1C(=O)N[C@H](C=O)Cc1ccccc1 (single isomer, unassigned) [Compound 96]
Cathepsin B; Table III, 1 uM
  Cat B % I @ 1 uM: 90%
Cathepsin L; Table III, 1 uM
  Cat L % I @ 1 uM: 100%
thrombin; Table III
  Thrombin % I @ 10 uM: 0%
α-chymotrypsin; Table III
  Chymotrypsin % I @ 10 uM: 14%
[1]; Table III
  IC50: 174 nM
[1]; Table III, 0.1 uM
  Calpain % I @ 0.1 uM: 49%
